Source: patent US9597359B2, “Production of dentin, cementum and enamel by cells” (The Trustees of Columbia University in the City of New York, priority 2010, dated 2017)

How the values were obtained:
Human PDL cells [1] = test: von Kossa staining of human PDL cells treated with amelogenin, BIO or Wnt3A; type: cell-based; conditions: 2 weeks; amelogenin 5 μg/ml, BIO 1 μg/ml, Wnt3A 50 ng/ml
Procedure: The human PDL cells were treated with amelogenin, BIO, or Wnt3A as indicated for 2 weeks.

beta catenin [2] = test: beta catenin translocation by immunofluorescence staining in PDL cells; type: cell-based, human
Procedure: The PDL cells were treated with recombinant amelogenin overnight. The translocation of beta catenin was determined by immunofluorescence staining (see e.g., FIG. 7A-F). Briefly, the cells were fixed with formalin for 5 min and treated with PBS with 0.1% triton for 5 min. The cells were then incubated with anti-beta catenin antibody overnight, after washing with PBS with 0.5% Tween-20, then incubated with secondary antibody labeled with fluorescence dye. […] Meanwhile, the PDL cells treated with amelogenin were lysed with PBS lysis buffer containing 1% NP-40 and protease inhibitor, phosphotase inhibitor cocktails. The non-phosphorylated beta catenin levels were determined by western blotting using anti-active beta catenin antibody (anti-ABC, millipore) (see e.g., FIG. 7G).
PDL cells were treated with amelogenin for 16 hours. The active beta catenin level were determined by western blotting (see e.g., FIG. 18A). […] Wnt signaling reporter TOPFLASH was transfected into PDL cells and then the cells were treated with amelogenin. The luciferase activity was measured 48 hours after treatment (see e.g., FIG. 18C). The primary osteoblasts were isolated from Wnt signaling reporter mice, TOPGAL. 48 hours after treatment, the LacZ activity was measured (see e.g., FIG. 18D). Fibrin gel containing 50 μg/ml was implanted subcutaneously into the TOPGAL mice. 1 week post-implantation, the gel was harvested. […]

beta catenin [3] = test: beta catenin translocation by immunofluorescence staining in dental pulp cells; type: cell-based, human; conditions: dental pulp cells treated with recombinant amelogenin overnight
Procedure: (§1) The dental pulp cells were treated with recombinant amelogenin overnight. The translocation of beta catenin was determined by immunofluorescence staining (see e.g., FIG. 8A-F). Briefly, the cells were fixed with formalin for 5 min and treated with PBS with 0.1% triton for 5 min. The cells were then incubated with anti-beta catenin antibody overnight, after washing with PBS with 0.5% Tween-20, then incubated with secondary antibody labeled with fluorescence dye. […] The PDL cells treated with amelogenin were lysed with PBS lysis buffer containing 1% NP-40 and protease inhibitor, phosphatase inhibitor cocktails. The non-phosphorylated beta-catenin levels were determined by western blotting using anti-active beta catenin antibody (anti-ABC, millipore) (see e.g., FIG. 8G).

[4] = system: non-phosphorylated beta-catenin; test: non-phosphorylated beta-catenin western blotting, dental pulp cells; type: cell-based, human; conditions: anti-active beta catenin antibody
Procedure: as §1

active beta catenin = active beta catenin western blotting, PDL cells; type: cell-based, human; conditions: PDL cells treated for 16 hours
Procedure: (§2) PDL cells were treated with amelogenin for 16 hours. The active beta catenin level were determined by western blotting (see e.g., FIG. 18A). […] Wnt signaling reporter TOPFLASH was transfected into PDL cells and then the cells were treated with amelogenin. The luciferase activity was measured 48 hours after treatment (see e.g., FIG. 18C). The primary osteoblasts were isolated from Wnt signaling reporter mice, TOPGAL. 48 hours after treatment, the LacZ activity was measured (see e.g., FIG. 18D). Fibrin gel containing 50 μg/ml was implanted subcutaneously into the TOPGAL mice. 1 week post-implantation, the gel was harvested. LacZ staining was performed. […] Recombinant amelogenin is 6×His tagged. The distribution of amelogenin is shown overlapped with the beta catenin signaling as indicated by the LacZ staining (see e.g., FIG. 18F).

[5] = system: Wnt signaling reporter TOPFLASH; test: Wnt signaling reporter TOPFLASH luciferase activity in PDL cells; type: cell-based, human; conditions: 48 hours after treatment
Procedure: as §2

[6] = system: Wnt signaling reporter (TOPGAL osteoblasts); test: LacZ activity in primary osteoblasts from TOPGAL mice; type: cell-based; conditions: 48 hours after treatment
Procedure: as §2

beta catenin signaling = test: fibrin gel implanted subcutaneously into TOPGAL mice, LacZ staining; type: in vivo; conditions: fibrin gel containing 50 μg/ml, subcutaneous, 1 week post-implantation
Procedure: as §2

PDL cells [7] = test: cell count of PDL cells; type: cell-based, human; conditions: counted at 0, 2 and 4 days
Procedure: PDL cells and dental pulp cells (DPSC) were seeded in 12 well plate with the cells number indicated. The cell treated with amelogenin and cell number were counted at 0, 2, and 4 days (see e.g., FIG. 9A-B).

[8] = system: Dental pulp stem cells (DPSCs); test: marker gene expression by RT-PCR in dental pulp stem cells in osteogenic medium; type: cell-based, human; conditions: 3 weeks
Procedure: Dental pulp stem cells (DPSCs) were cultured in osteogenic medium for 3 weeks (see e.g., FIG. 13A-B). The osteogenic differentiation was determined by ALP and Van Kossa staining (see e.g., FIG. 13B). The expression of marker genes, RunX2 and DSPP, were determined by RT-PCR (see e.g., FIG. 13C).

[9] = system: Mesenchymal stem cell C3H10t1/2 cells; test: ALP and Van Kossa staining of C3H10t1/2 cells in osteogenic medium; type: cell-based; conditions: C3H10t1/2, osteogenic medium
Procedure: Mesenchymal stem cell C3H10t1/2 cells were cultured in osteogenic medium for 2 weeks (see e.g., FIG. 14A).
(§3) At 3 weeks, amelogenin-treated cells were positive for both ALP and Van Kossa (see e.g., FIG. 15A-B). […] However, the cells tested negative for DSPP.

[10] = system: Mesenchymal stem cell C3H10t1/2 cells; test: RT-PCR marker expression in C3H10t1/2 cells in osteogenic medium; type: cell-based; conditions: C3H10t1/2, osteogenic medium
Excerpt: as §3

Human PDL cells [11] = test: trichrome staining of collagen matrix in human PDL cells; type: cell-based; conditions: 50 μg/ml ascorbic acid, 2 weeks post-treatment
Procedure: (§4) Human PDL cells were seeded in the 6 well plate and cultured in presence of 50 μg/ml ascorbic acid. The cells were treated with amelogenin. […] The total RNA was extracted and the expression of type I collagen was determined by Real Time PCR (see e.g., FIG. 17B). […] PDL cells were treated with amelogenin in the chemically-defined osteogenic media (see FIG. 17C).

Human PDL cells [12] = test: type I collagen expression by Real Time PCR in human PDL cells; type: cell-based; conditions: 2 weeks post-treatment
Procedure: as §4

PDL cells [13] = test: Alkaline phosphatase and von Kossa staining of PDL cells in osteogenic media; type: cell-based, human; conditions: chemically-defined osteogenic media
Procedure: as §4

PDL cells [14] = test: differentiation markers by Real Time PCR in PDL cells in osteogenic media; type: cell-based, human; conditions: chemically-defined osteogenic media
Procedure: as §4

Human PDL cells [15] = test: Von Kossa staining of human PDL cells transfected with ICAT plasmid; type: cell-based; conditions: osteogenic media, 2 weeks
Procedure: Human PDL cells were transfected with the Wnt signaling inhibitor, ICAT plasmid. The cells were treated with amelogenin in the osteogenic media for 2 weeks.

dental pulp cells = test: DSP immunostaining of dental pulp cells; type: cell-based, human; conditions: amelogenin group
Excerpt: Immunostaining verified DSP-positive cells in the amelogenin group (see e.g., FIG. 27A-B″).

DSCs = test: cell proliferation by cell number count; type: cell-based; conditions: 3000 cells seeded, counted every 2 days
Procedure: 3000 cells were seeded in the 12 well plate and the cell number was counted every 2 days (see e.g., FIG. 28A-B).

[16] = system: dental pulp stem cells or periodontal ligament stem cells; test: osteogenic and odontogenic differentiation of dental pulp and periodontal ligament stem cells; type: cell-based, human; conditions: culture with amelogenin (e.g., recombinant)
Procedure: Exfoliating deciduous incisors and permanent third molars of multiple donors were collected. Dental pulp (DP) and periodontal ligament (PDL) stem cells were isolated and enzyme-digested per known methods (Yang et al., 2010, Clones of ectopic stem cells in the regeneration of muscle defects in vivo. PloS One. 2010 Oct. 20; 5 (10)). Mononucleated and adherent cells were cultured in DMEM-LG medium containing 10% FBS and 1% antibiotics in 10 cm cell culture dishes. These isolated cells contain single clones of multipotent stem cells that readily express sternness markers such as Stro-1, Oct4, Nanog, and CD146. DSCs and PDL cells were expanded and subjected to osteogenic and odontogenic differentiation. Briefly, DP and PDL stem cells were cultured in DMEM-LG medium containing 10% FBS, 50 μg/ml ascorbic acid and 1 mM 2-glycerophosphate in the presence or absence of recombinant amelogenin. The osteoaenic and odontoaenic differentiation was determined by the expression of RUNX2, dentin sialophosphoprotein (DSPP) and Dentin Matrix Protein 1 (DMP-1) by Real Time PCR, as well as Von Kossa and alkaline phosphatase staining. The level of active […] was measured by immune-fluorescence staining and western blotting.

For `O=C1Nc2cc(Br)ccc2/C1=C1/Nc2ccccc2/C1=N\O` [BIO, reference compound], the “cell differentiation (von Kossa staining)” value (Human PDL cells [1]) was “cell differentiation”.

For amelogenin, the “nuclear translocalization of beta catenin” value (beta catenin [2]; PDL cells treated for 16 hours) was “nuclear translocalization”, the “translocation of beta catenin” value (beta catenin [2]; PDL cells treated with recombinant amelogenin overnight) was “beta catenin translocalized into nucleus” and the “translocation of beta catenin” value (beta catenin [3]) was “beta catenin translocalized into nucleus”. For the same molecule, the non-phosphorylated beta-catenin levels [4] was “increased”, the “active beta catenin level” value (active beta catenin) was “exhibited active beta-catenin levels” and the “Wnt activity (TOPFLASH luciferase activity)” value [5] was “increased”. For the same molecule, the LacZ activity [6] was “increased”, the “LacZ staining around implanted gel” value (beta catenin signaling) was “LacZ positive cells were found in the surrounding area of the gel” and the cell counts (PDL cells [7]) was “temporal increase in cell counts”. The DSPP expression [8] was “DSPP-positive”, the ALP staining ([9]; 2 weeks) was “positive” and the “Van Kossa staining” value ([9]; 2 weeks) was “negative”. For the same molecule, the ALP staining ([9]; 3 weeks) was “positive”, the “Van Kossa staining” value ([9]; 3 weeks) was “positive” and the DSPP ([10]; 3 weeks) was “negative”. The RunX2 expression ([10]; RT-PCR) was “induced”, the “collagen matrix synthesis (trichrome staining)” value (Human PDL cells [11]) was “promote the PDL cells matrix synthesis” and the “type I collagen mRNA” value (Human PDL cells [12]) was “upregulate”. For the same molecule, the “cell differentiation (Alkaline phosphatase and von Kossa staining)” value (PDL cells [13]) was “cell differentiation was confirmed”, the “differentiation markers (Real Time PCR)” value (PDL cells [14]) was “upregulation” and the “cell differentiation (Von Kossa staining)” value (Human PDL cells [15]) was “demonstrated cell differentiation”. The “cell differentiation (von Kossa staining)” value (Human PDL cells [1]) was “cell differentiation”, the DSP immunostaining (dental pulp cells) was “DSP-positive” and the “cell proliferation (cell number)” value (DSCs) was “more rapid proliferation”. For the same molecule, the “ALP and Van Kossa staining” value [16] was “increased” and the DSPP expression [16] was “increased”.

B1: Wnt3A: Wnt3A used at 50 ng/ml on human PDL cells as comparator (protein, UniProt P56704 19-352, looked up)
Protein Wnt-3a: SYPIWWSLAVGPQYSSLGSQPILCASIPGLVPKQLRFCRNYVEIMPSVAEGIKIGIQECQHQFRGRRWNCTTVHDSLAIFGPVLDKATRESAFVHAIASAGVAFAVTRSCAEGTAAICGCSSRHQGSPGKGWKWGGCSEDIEFGGMVSREFADARENRPDARSAMNRHNNEAGRQAIASHMHLKCKCHGLSGSCEVKTCWWSQPDFRAIGDFLKDKYDSASEMVVEKHRESRGWVETLRPRYTYFKVPTERDLVYYEASPNFCEPNPETGSFGTRDRTCNVSSHGIDGCDLLCCGRGHNARAERRREKCRCVFHWCCYVSCQECTRVYDVHTCK
In the case of B1, the “cell differentiation (von Kossa staining)” value (Human PDL cells [1]) is reported as “cell differentiation”.
